Test results as given in PubChem BioAssay (NCI).
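Where inhibition never reached the appropriate level, the endpoint shown equals the highest concentration tested. Otherwise, values were interpolated linearly from a five-concentration, 48-hour dose response in 96-well plates. At the GI50, growth is halved. At the TGI there is no net growth.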

Assays:
Experiment in all cases: NCI anticancer screen, dose series, 48 h
A498 renal = test system: A498 renal
LOX IMVI melanoma = test system: LOX IMVI melanoma
K-562 leukemia = test system: K-562 leukemia
UACC-257 melanoma = test system: UACC-257 melanoma
OVCAR-3 ovarian = test system: OVCAR-3 ovarian
NCI-H460 lung = test system: NCI-H460 lung
PC-3 prostate = test system: PC-3 prostate
RPMI-8226 leukemia = test system: RPMI-8226 leukemia
MOLT-4 leukemia = test system: MOLT-4 leukemia
SNB-75 CNS = test system: SNB-75 CNS
HOP-62 NSCLC = test system: HOP-62 NSCLC
UO-31 renal = test system: UO-31 renal
SK-MEL-28 melanoma = test system: SK-MEL-28 melanoma
CAKI-1 renal = test system: CAKI-1 renal
SK-OV-3 ovarian = test system: SK-OV-3 ovarian
COLO 205 colon = test system: COLO 205 colon
NCI/ADR-RES ovarian = test system: NCI/ADR-RES ovarian
OVCAR-5 ovarian = test system: OVCAR-5 ovarian
M14 melanoma = test system: M14 melanoma
ACHN renal = test system: ACHN renal
MDA-MB-435 = test system: MDA-MB-435
OVCAR-4 ovarian = test system: OVCAR-4 ovarian
NCI-H23 lung = test system: NCI-H23 lung
NCI-H522 lung = test system: NCI-H522 lung
CCRF-CEM leukemia = test system: CCRF-CEM leukemia
SK-MEL-2 melanoma = test system: SK-MEL-2 melanoma
SN12C renal = test system: SN12C renal
HL-60(TB) leukemia = test system: HL-60(TB) leukemia
MCF7 breast = test system: MCF7 breast
HS 578T breast = test system: HS 578T breast
U251 CNS = test system: U251 CNS
IGROV1 ovarian = test system: IGROV1 ovarian
EKVX NSCLC = test system: EKVX NSCLC
A549 NSCLC = test system: A549 NSCLC
SF-539 CNS = test system: SF-539 CNS
HCC-2998 colon = test system: HCC-2998 colon
TK-10 renal = test system: TK-10 renal
SW-620 colon = test system: SW-620 colon
SR leukemia = test system: SR leukemia
OVCAR-8 ovarian = test system: OVCAR-8 ovarian
BT-549 breast = test system: BT-549 breast
DU-145 prostate = test system: DU-145 prostate
MALME-3M melanoma = test system: MALME-3M melanoma
SNB-19 CNS = test system: SNB-19 CNS
SF-295 CNS = test system: SF-295 CNS
SF-268 CNS = test system: SF-268 CNS
HT29 colon = test system: HT29 colon
HCT-116 colon = test system: HCT-116 colon
HCT-15 colon = test system: HCT-15 colon
KM12 colon = test system: KM12 colon
T-47D breast = test system: T-47D breast
HOP-92 NSCLC = test system: HOP-92 NSCLC
NCI-H226 lung = test system: NCI-H226 lung
UACC-62 melanoma = test system: UACC-62 melanoma
SK-MEL-5 melanoma = test system: SK-MEL-5 melanoma
786-0 renal = test system: 786-0 renal
MDA-MB-231 breast = test system: MDA-MB-231 breast
RXF 393 renal = test system: RXF 393 renal

## COC(=O)C1=CN(CC2=CC(=O)C(C)=CC2=O)C=C(C(=O)OC)C1c1cc(OC)ccc1OC
A498 renal
  GI50: 15 µM
  TGI: 29.7 µM
LOX IMVI melanoma
  GI50: 13.7 µM
  TGI: 26.6 µM
K-562 leukemia
  GI50: 3.85 µM
UACC-257 melanoma
  GI50: 14.1 µM
  TGI: 27.4 µM
OVCAR-3 ovarian
  GI50: 12.5 µM
  TGI: 29.2 µM
NCI-H460 lung
  GI50: 20.4 µM
  TGI: > 95.8 µM
PC-3 prostate
  GI50: 9.42 µM
  TGI: 24.7 µM
RPMI-8226 leukemia
  GI50: 1.9 µM
  TGI: 4.83 µM
MOLT-4 leukemia
  GI50: 2.21 µM
SNB-75 CNS
  GI50: 25.4 µM
  TGI: 74.1 µM
HOP-62 NSCLC
  GI50: 19.9 µM
  TGI: 38 µM
UO-31 renal
  GI50: 4.94 µM
  TGI: 9.44 µM
SK-MEL-28 melanoma
  GI50: 15.4 µM
  TGI: 40.5 µM
CAKI-1 renal
  GI50: 6.38 µM
  TGI: 13.5 µM
SK-OV-3 ovarian
  GI50: 23 µM
  TGI: > 54.8 µM
COLO 205 colon
  GI50: 8.56 µM
  TGI: 30.6 µM
NCI/ADR-RES ovarian
  GI50: 15.7 µM
  TGI: 39.2 µM
OVCAR-5 ovarian
  GI50: 13.9 µM
  TGI: 28 µM
M14 melanoma
  GI50: 12.1 µM
  TGI: 26.5 µM
ACHN renal
  GI50: 1.85 µM
  TGI: 3.87 µM
MDA-MB-435
  GI50: 16.7 µM
  TGI: 31.2 µM
OVCAR-4 ovarian
  GI50: 12.5 µM
  TGI: 30.9 µM
NCI-H23 lung
  GI50: 13.4 µM
  TGI: 28.6 µM
NCI-H522 lung
  GI50: 18.9 µM
  TGI: > 56.2 µM
CCRF-CEM leukemia
  GI50: 1.73 µM
  TGI: 3.61 µM
SK-MEL-2 melanoma
  GI50: 24 µM
  TGI: > 73 µM
SN12C renal
  GI50: 16 µM
  TGI: 33.2 µM
HL-60(TB) leukemia
  GI50: 6.8 µM
  TGI: 99.4 µM
MCF7 breast
  GI50: 22.7 µM
  TGI: > 92.2 µM
HS 578T breast
  GI50: 4.54 µM
  TGI: 27.3 µM
U251 CNS
  GI50: 6.87 µM
  TGI: 20.2 µM
IGROV1 ovarian
  GI50: 16.6 µM
  TGI: 43.1 µM
EKVX NSCLC
  GI50: 16 µM
  TGI: 31.8 µM
A549 NSCLC
  GI50: 13.5 µM
  TGI: 31.2 µM
SF-539 CNS
  GI50: 16.6 µM
  TGI: 31.9 µM
HCC-2998 colon
  GI50: 5.79 µM
  TGI: 13.4 µM
TK-10 renal
  GI50: 10.7 µM
  TGI: 36.8 µM
SW-620 colon
  GI50: 3.38 µM
  TGI: 11.6 µM
SR leukemia
  GI50: 2.59 µM
  TGI: > 22.3 µM
OVCAR-8 ovarian
  GI50: 12.9 µM
  TGI: 38.4 µM
BT-549 breast
  GI50: 17.1 µM
  TGI: 41.7 µM
DU-145 prostate
  GI50: 13.8 µM
  TGI: 26.8 µM
MALME-3M melanoma
  GI50: 20 µM
  TGI: 36 µM
SNB-19 CNS
  GI50: 14.1 µM
  TGI: 48.1 µM
SF-295 CNS
  GI50: 18.5 µM
  TGI: 38 µM
SF-268 CNS
  GI50: 13.8 µM
  TGI: 31.3 µM
HT29 colon
  GI50: 4.71 µM
  TGI: > 100 µM
HCT-116 colon
  GI50: 1.87 µM
  TGI: 3.28 µM
HCT-15 colon
  GI50: 13.5 µM
  TGI: 30 µM
KM12 colon
  GI50: 16.1 µM
  TGI: 31.7 µM
T-47D breast
  GI50: 3.03 µM
  TGI: > 100 µM
HOP-92 NSCLC
  GI50: 0.658 µM
  TGI: 11.9 µM
NCI-H226 lung
  GI50: 20.1 µM
  TGI: 54.3 µM
UACC-62 melanoma
  GI50: 13.3 µM
  TGI: 26.4 µM
SK-MEL-5 melanoma
  GI50: 14.8 µM
  TGI: 29.1 µM
786-0 renal
  GI50: 2.28 µM
  TGI: 5.54 µM
MDA-MB-231 breast
  GI50: 15.7 µM
  TGI: 30.2 µM
RXF 393 renal
  GI50: 3 µM
  TGI: 11.6 µM

## CCCN(CCC)c1ccc(CO)c(Cl)c1
A498 renal
  GI50: 0.117 µM
  TGI: 0.253 µM
LOX IMVI melanoma
  GI50: 30.4 µM
  TGI: > 100 µM
K-562 leukemia
  GI50: 6.21 µM
  TGI: 37.7 µM
UACC-257 melanoma
  GI50: 0.352 µM
  TGI: 1.49 µM
OVCAR-3 ovarian
  GI50: 1.62 µM
  TGI: 5.07 µM
NCI-H460 lung
  GI50: 2.13 µM
  TGI: 32.1 µM
PC-3 prostate
  GI50: 22.8 µM
  TGI: 89.6 µM
RPMI-8226 leukemia
  GI50: 5.93 µM
  TGI: 28.9 µM
MOLT-4 leukemia
  GI50: 23.3 µM
  TGI: 62.6 µM
SNB-75 CNS
  GI50: 25.8 µM
  TGI: > 96.7 µM
HOP-62 NSCLC
  GI50: 8.25 µM
  TGI: > 100 µM
UO-31 renal
  GI50: 35.4 µM
  TGI: > 100 µM
SK-MEL-28 melanoma
  GI50: 42.5 µM
  TGI: > 100 µM
CAKI-1 renal
  GI50: 5.77 µM
  TGI: 50.6 µM
SK-OV-3 ovarian
  GI50: 31.3 µM
  TGI: > 100 µM
COLO 205 colon
  GI50: 3.5 µM
  TGI: 10.1 µM
NCI/ADR-RES ovarian
  GI50: 23.6 µM
  TGI: > 89.7 µM
OVCAR-5 ovarian
  GI50: 0.257 µM
  TGI: 0.718 µM
M14 melanoma
  GI50: 37.5 µM
  TGI: 97.4 µM
ACHN renal
  GI50: 38.5 µM
  TGI: > 100 µM
MDA-MB-435
  GI50: 37.1 µM
  TGI: > 100 µM
OVCAR-4 ovarian
  GI50: 1.21 µM
  TGI: 7.79 µM
NCI-H23 lung
  GI50: 23.2 µM
  TGI: > 100 µM
NCI-H522 lung
  GI50: 16.4 µM
  TGI: 38.9 µM
CCRF-CEM leukemia
  GI50: 17.4 µM
  TGI: 51.7 µM
SK-MEL-2 melanoma
  GI50: 9.47 µM
  TGI: 33.9 µM
SN12C renal
  GI50: 39.2 µM
  TGI: > 100 µM
HL-60(TB) leukemia
  GI50: 19.5 µM
  TGI: 44.6 µM
MCF7 breast
  GI50: 1.23 µM
  TGI: 33 µM
HS 578T breast
  GI50: 25 µM
  TGI: > 91.9 µM
U251 CNS
  GI50: 10.3 µM
  TGI: > 100 µM
IGROV1 ovarian
  GI50: 0.401 µM
  TGI: 2.41 µM
EKVX NSCLC
  GI50: 18.2 µM
  TGI: 59 µM
A549 NSCLC
  GI50: 7.2 µM
  TGI: > 63 µM
SF-539 CNS
  GI50: 40.2 µM
  TGI: > 100 µM
HCC-2998 colon
  GI50: 13.5 µM
  TGI: 48.2 µM
TK-10 renal
  GI50: 0.223 µM
  TGI: 0.663 µM
SW-620 colon
  GI50: 6.41 µM
  TGI: > 100 µM
SR leukemia
  GI50: 19.3 µM
  TGI: 45.9 µM
OVCAR-8 ovarian
  GI50: 34.9 µM
  TGI: > 100 µM
BT-549 breast
  GI50: 22 µM
  TGI: > 60.2 µM
DU-145 prostate
  GI50: 52 µM
  TGI: > 100 µM
MALME-3M melanoma
  GI50: 29.1 µM
  TGI: > 78.5 µM
SNB-19 CNS
  GI50: > 63.8 µM
  TGI: > 100 µM
SF-295 CNS
  GI50: 5.45 µM
  TGI: > 78.9 µM
SF-268 CNS
  GI50: 47.3 µM
  TGI: > 100 µM
HT29 colon
  GI50: 9.75 µM
  TGI: > 52.4 µM
HCT-116 colon
  GI50: 0.44 µM
  TGI: 7.88 µM
HCT-15 colon
  GI50: 20.4 µM
  TGI: > 80.9 µM
KM12 colon
  GI50: 35 µM
  TGI: > 100 µM
T-47D breast
  GI50: 0.459 µM
  TGI: 2.91 µM
HOP-92 NSCLC
  GI50: 9.43 µM
  TGI: 31.2 µM
NCI-H226 lung
  GI50: 0.166 µM
  TGI: 0.419 µM
UACC-62 melanoma
  GI50: 0.485 µM
  TGI: 4.79 µM
SK-MEL-5 melanoma
  GI50: 12.9 µM
  TGI: 27.3 µM
786-0 renal
  GI50: 16.8 µM
  TGI: 45.6 µM
MDA-MB-231 breast
  GI50: 31.6 µM
  TGI: > 68.4 µM
RXF 393 renal
  GI50: 7.37 µM
  TGI: 29.5 µM
